# Data reported in patent US7053043B1, “Pharmaceutical compositions comprising synthetic peptide copolymers and methods for preventing and treating GVHD and HVGD” (Yeda Research and Development Co.Ltd., priority 1999, dated 2006).
# Test system: presentation of BALB/c minor H antigens by B10.D2 APC to B10.D2 responder T cells
# Assay: Proliferative responses to minor H antigens, APC pre-pulsed with Cop 1 and washed
# Format: cell-based, mice
# Details: washed
# Method: B10.D2 mice were injected ip. with irradiated (20 Gy) BALB/c spleen cells 72 hours prior to the assay. B10.D2 spleen cells were harvested, depleted of red blood cells (RBC) and used as irradiated (10 Gy) antigen-presenting cells (APC) presenting BALB/c mH antigens. For the primary assay, APC were plated at 2.5×10^5 cells per well in 96-well round-bottom plates and incubated with 2.5×10^5 nylon-wool-enriched responder T cells (>88% CD3^+ by FACS analysis) from naive B10.D2 mice in the presence or absence of increasing concentrations of Copolymer 1 (2.5–80 μg/well). After 96 hours of incubation, cells were pulsed with 1 μCi [^3H]-thymidine for an additional 16 hours before harvesting. In the secondary assay, irradiated APC were plated at 2.5×10^5 cells/well in 96-well round-bottom plates, preincubated for 24 hours at 37° C. with increasing concentrations of GLAT (2.5–80 μg/well) or with medium alone, and thereafter washed three times before the addition of 2.5×10^5 nylon-wool-enriched responder T cells from naive B10.D2 mice. Culture medium was RPMI 1640, supplemented with 10% pre-screened fetal calf serum, 2 mM glutamine, 50 μM 2-mercaptoethanol, 100 U/ml penicillin, and 100 μg/ml streptomycin.
# […] Results are expressed as cpm from triplicate cultures. Standard deviations were <20% of the mean. Culture medium was RPMI 1640, supplemented with 10% pre-screened fetal calf serum, 2 mM glutamine, 50 μM 2-mercaptoethanol, 100 U/ml penicillin, and 100 μg/ml streptomycin.
substance,measurement,setting,value
Glatiramer acetate [Cop 1],cpm (Cop 1 Pulsing Concentration),APC pre-pulsed 24 hours with Cop 1 1.5 μg (Batch II),"15,533 cpm"
same,cpm (Cop 1 Pulsing Concentration),APC pre-pulsed 24 hours with Cop 1 5 μg (Batch II),"12,377 cpm"
same,cpm (Cop 1 Pulsing Concentration),APC pre-pulsed 24 hours with Cop 1 10 μg (Batch II),"11,425 cpm"
same,cpm (Cop 1 Pulsing Concentration),APC pre-pulsed 24 hours with Cop 1 20 μg (Batch II),"10,465 cpm"
same,cpm (Cop 1 Pulsing Concentration),APC pre-pulsed 24 hours with Cop 1 40 μg (Batch II),"7,653 cpm"
same,cpm (Cop 1 Pulsing Concentration),APC pre-pulsed 24 hours with Cop 1 80 μg (Batch II),"4,628 cpm"
